The NIST ThermoML archive (doi:10.1016/j.fluid.2018.10.006)

Settings: Fluid (supercritical or subcritical phases), Coaxial cylinder method

CCCCCC [hexane]
Settings | thermal conductivity [W/m/K]
513.09 K, 8500 kPa | 0.07722
513.09 K, 8790 kPa | 0.07758
513.09 K, 8830 kPa | 0.07762
513.09 K, 8882 kPa | 0.07769
513.09 K, 9275 kPa | 0.07816
513.09 K, 9297 kPa | 0.07816
513.09 K, 9300 kPa | 0.07816
513.09 K, 9344 kPa | 0.0782
513.09 K, 9367 kPa | 0.07824
513.09 K, 9700 kPa | 0.07864
513.09 K, 9900 kPa | 0.07883
513.09 K, 10000 kPa | 0.07894
515.56 K, 676 kPa | 0.03834
515.56 K, 700 kPa | 0.03843
515.56 K, 900 kPa | 0.03853
515.56 K, 1220 kPa | 0.039
515.56 K, 1221 kPa | 0.039
515.56 K, 1672 kPa | 0.04008
515.56 K, 1786 kPa | 0.04038
515.56 K, 1822 kPa | 0.04059
515.56 K, 2209 kPa | 0.0423
515.56 K, 2287 kPa | 0.04275
515.56 K, 2404 kPa | 0.04344
515.56 K, 2503 kPa | 0.04392
515.56 K, 2607 kPa | 0.04465
515.56 K, 2688 kPa | 0.04553
515.56 K, 2751 kPa | 0.04606
515.56 K, 2811 kPa | 0.04699
515.56 K, 2856 kPa | 0.04713
515.56 K, 2919 kPa | 0.04712
515.56 K, 2953 kPa | 0.04782
515.56 K, 2989 kPa | 0.04928
515.56 K, 3019 kPa | 0.05004
515.56 K, 3062 kPa | 0.05082
515.56 K, 3072 kPa | 0.05082
515.56 K, 3083 kPa | 0.05163
515.56 K, 3103 kPa | 0.05247
515.56 K, 3114 kPa | 0.05247
515.56 K, 3122 kPa | 0.05247
515.56 K, 3140 kPa | 0.05247
515.56 K, 3153 kPa | 0.05333
515.56 K, 3164 kPa | 0.05333
515.56 K, 3174 kPa | 0.05422
515.56 K, 3180 kPa | 0.05422
515.56 K, 3193 kPa | 0.05609
515.56 K, 3201 kPa | 0.05609
515.56 K, 3209 kPa | 0.05609
515.56 K, 3220 kPa | 0.05609
515.56 K, 3230 kPa | 0.05808
515.56 K, 3235 kPa | 0.05808
515.56 K, 3243 kPa | 0.05808
515.56 K, 3249 kPa | 0.05808
515.56 K, 3257 kPa | 0.06022
515.56 K, 3265 kPa | 0.06022
515.56 K, 3270 kPa | 0.06022
515.56 K, 3275 kPa | 0.06022
515.56 K, 3283 kPa | 0.06205
515.56 K, 3293 kPa | 0.06205
515.56 K, 3301 kPa | 0.06374
515.56 K, 3309 kPa | 0.06474
515.56 K, 3316 kPa | 0.065
515.56 K, 3322 kPa | 0.06539
515.56 K, 3329 kPa | 0.06578
515.56 K, 3334 kPa | 0.06604
515.56 K, 3339 kPa | 0.06631
515.56 K, 3342 kPa | 0.06658
515.56 K, 3347 kPa | 0.06685
515.56 K, 3350 kPa | 0.06698
515.56 K, 3352 kPa | 0.06712
515.56 K, 3357 kPa | 0.06737
515.56 K, 3360 kPa | 0.06751
515.56 K, 3362 kPa | 0.06759
515.56 K, 3368 kPa | 0.06795
515.56 K, 3373 kPa | 0.06823
515.56 K, 3386 kPa | 0.06866
515.56 K, 3394 kPa | 0.06909
515.56 K, 3426 kPa | 0.06997
515.56 K, 3453 kPa | 0.06911
515.56 K, 3462 kPa | 0.06911
515.56 K, 3482 kPa | 0.06911
515.56 K, 3490 kPa | 0.06911
515.56 K, 3499 kPa | 0.06911
515.56 K, 3520 kPa | 0.06911
515.56 K, 3541 kPa | 0.06911
515.56 K, 3550 kPa | 0.06911
515.56 K, 3566 kPa | 0.06911
515.56 K, 3579 kPa | 0.06769
515.56 K, 3614 kPa | 0.06769
515.56 K, 3638 kPa | 0.06769
515.56 K, 3682 kPa | 0.06769
515.56 K, 3700 kPa | 0.06769
515.56 K, 3750 kPa | 0.06938
515.56 K, 3800 kPa | 0.06938
515.56 K, 3841 kPa | 0.06944
515.56 K, 3900 kPa | 0.0695
515.56 K, 3928 kPa | 0.06953
515.56 K, 3941 kPa | 0.06959
515.56 K, 3995 kPa | 0.06965
515.56 K, 4000 kPa | 0.06968
515.56 K, 4025 kPa | 0.06968
515.56 K, 4104 kPa | 0.06983
515.56 K, 4200 kPa | 0.07004
515.56 K, 4307 kPa | 0.07016
515.56 K, 4388 kPa | 0.07034
515.56 K, 4400 kPa | 0.0704
515.56 K, 4488 kPa | 0.07058
515.56 K, 4537 kPa | 0.07067
515.56 K, 4593 kPa | 0.0708
515.56 K, 4620 kPa | 0.07089
515.56 K, 4700 kPa | 0.07098
515.56 K, 4790 kPa | 0.07114
515.56 K, 4800 kPa | 0.07117
515.56 K, 4830 kPa | 0.07123
515.56 K, 4900 kPa | 0.07129
515.56 K, 5000 kPa | 0.07151
515.56 K, 5100 kPa | 0.07167
515.56 K, 5130 kPa | 0.0717
515.56 K, 5200 kPa | 0.07182
515.56 K, 5300 kPa | 0.07198
515.56 K, 5400 kPa | 0.07217
515.56 K, 5580 kPa | 0.07243
515.56 K, 5600 kPa | 0.07246
515.56 K, 5690 kPa | 0.07265
515.56 K, 5740 kPa | 0.07275
515.56 K, 5800 kPa | 0.07285
515.56 K, 5900 kPa | 0.07301
515.56 K, 6050 kPa | 0.07327
515.56 K, 6060 kPa | 0.07327
515.56 K, 6080 kPa | 0.0733
515.56 K, 6300 kPa | 0.07366
515.56 K, 6380 kPa | 0.0738
515.56 K, 6460 kPa | 0.07393
515.56 K, 6610 kPa | 0.07417
515.56 K, 6920 kPa | 0.07464
515.56 K, 6950 kPa | 0.07468
515.56 K, 7020 kPa | 0.07478
515.56 K, 7100 kPa | 0.07488
515.56 K, 7470 kPa | 0.0754
515.56 K, 7560 kPa | 0.07554
515.56 K, 7570 kPa | 0.07557
515.56 K, 7600 kPa | 0.0756
515.56 K, 7840 kPa | 0.07592
515.56 K, 7870 kPa | 0.07595
515.56 K, 7940 kPa | 0.07602
515.56 K, 8050 kPa | 0.07617
515.56 K, 8100 kPa | 0.0762
515.56 K, 8140 kPa | 0.07624
515.56 K, 8230 kPa | 0.07638
515.56 K, 8370 kPa | 0.07656
515.56 K, 8470 kPa | 0.07663
515.56 K, 8540 kPa | 0.0767
515.56 K, 8730 kPa | 0.07695
515.56 K, 8870 kPa | 0.07714
515.56 K, 9080 kPa | 0.07739
515.56 K, 9100 kPa | 0.07739
525.42 K, 1000 kPa | 0.0403
525.42 K, 1500 kPa | 0.0416
525.42 K, 1975 kPa | 0.04209
525.42 K, 1984 kPa | 0.04209
525.42 K, 2100 kPa | 0.04213
525.42 K, 2200 kPa | 0.04213
525.42 K, 2300 kPa | 0.04213
525.42 K, 2404 kPa | 0.04213
525.42 K, 2423 kPa | 0.04213
525.42 K, 2425 kPa | 0.04213
